biological target: PD-1/PD-L1 (Homo sapiens (Human), UniProt Q9NZQ7); test: PD-1/PD-L1 Binding Assay (Alphascreen); details: numeric values
Method in brief: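 PD-1/PD-L1 binding detected by anti-6×His acceptor and streptavidin donor beads after 120 min in the dark at 25 °C. Beforehand, the two proteins were incubated 15 min at 25 °C with inhibitor at 0.015–300 nM (1% DMSO). IC50 comes from a log concentration–response curve.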

Chain of PD-1/PD-L1 (Q9NZQ7 19-238): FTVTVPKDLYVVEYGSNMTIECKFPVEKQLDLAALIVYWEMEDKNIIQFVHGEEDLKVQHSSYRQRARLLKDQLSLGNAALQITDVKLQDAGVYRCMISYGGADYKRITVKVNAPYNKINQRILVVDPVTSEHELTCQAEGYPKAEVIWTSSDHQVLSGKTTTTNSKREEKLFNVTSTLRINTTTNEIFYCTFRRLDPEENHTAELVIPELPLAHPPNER

Row | Structure (SMILES) | IC50
1 | Cc1c(-c2nc3cc(CNCC4(CO)CC(F)(F)C4)c(OC(F)F)cc3o2)cccc1-c1cccc(-c2nc3cc(CN4CCC[C@H]4C(=O)O)c(OC(F)F)cc3o2)c1C [Example 73, ((2-(3′-(5-((((3,3-difluoro-1-(hydroxymethyl)cyclobutyl)methyl)amino)methyl)-6-(difluoromethoxy)benzo[d]oxazol-2-yl)-2,2′-dimethyl-[1,1′-biphenyl]-3-yl)-6-(difluoromethoxy)benzo[d]oxazol-5-yl)methyl)-L-proline] | 0.42 nM
2 | Cc1c(-c2nc3cc(CN4CC5CC(=O)CC4C5)c(OC(F)F)cc3o2)cccc1-c1cccc(-c2nc3cc(CN4CCC[C@H]4C(=O)O)c(OC(F)F)cc3o2)c1C (stereo partly drawn) [Example 75, ((6-(difluoromethoxy)-2-(3′-(6-(difluoromethoxy)-5-((3-oxo-6-azabicyclo [3.2.1]octan-6-yl)methyl)benzo[d]oxazol-2-yl)-2,2′-dimethyl-[1,1′-biphenyl]-3-yl)benzo[d]oxazol-5-yl)methyl)-L-proline] | 10 nM
3 | Cc1c(-c2nc3cc(CN4CC5(C4)CC5(F)F)c(OC(F)F)cc3o2)cccc1-c1cccc(-c2nc3cc(CN4CCC[C@H]4C(=O)O)c(OC(F)F)cc3o2)c1C [Example 76, ((2-(3′-(5-((1,1-difluoro-5-azaspiro[2.3]hexan-5-yl)methyl)-6-(difluoromethoxy)benzo[d]oxazol-2-yl)-2,2′-dimethyl-[1,1′-biphenyl]-3-yl)-6-(difluoromethoxy)benzo[d]oxazol-5-yl)methyl)-L-proline] | 32 nM
4 | Cc1c(-c2nc3cc(CN4CCC(C)(CO)C4)c(OC(F)F)cc3o2)cccc1-c1cccc(-c2nc3cc(CN4CCC[C@H]4C(=O)O)c(OC(F)F)cc3o2)c1C (stereo partly drawn) [Example 77, ((6-(difluoromethoxy)-2-(3′-(6-(difluoromethoxy)-5-((3-(hydroxymethyl)-3-methylpyrrolidin-1-yl)methyl)benzo[d]oxazol-2-yl)-2,2′-dimethyl-[1,1′-biphenyl]-3-yl)benzo[d]oxazol-5-yl)methyl)-L-proline] | 1.2 nM
5 | Cc1c(-c2nc3cc(CN4CC[C@H](C(=O)O)C4)c(OC(F)F)cc3o2)cccc1-c1cccc(-c2nc3cc(CN4CC(C)(C)C4)c(OC(F)F)cc3o2)c1C [Example 86, (S)-1-((6-(difluoromethoxy)-2-(3′-(6-(difluoromethoxy)-5-((3,3-dimethylazetidin-1-yl)methyl)benzo[d]oxazol-2-yl)-2,2′-dimethyl-[1,1′-biphenyl]-3-yl)benzo[d]oxazol-5-yl)methyl)pyrrolidine-3-carboxylic acid] | 11 nM
6 | Cc1c(-c2nc3cc(CN4CCC[C@@H]4C(=O)O)c(OC(F)F)cc3o2)cccc1-c1cccc(-c2nc3cc(CN4CCC(C)C4)cc(C(F)(F)F)c3o2)c1C (stereo partly drawn) [Example 90, ((6-(difluoromethoxy)-2-(2,2′-dimethyl-3′-(5-((3-methylpyrrolidin-1-yl)methyl)-7-(trifluoromethyl)benzo [d]oxazol-2-yl)-[1,1′-biphenyl]-3-yl)benzo[d]oxazol-5-yl)methyl)-D-proline] | 0.88 nM
7 | Cc1c(-c2nc3cc(CN4CCC[C@H]4C(=O)O)c(OC(F)F)cc3o2)cccc1-c1cccc(-c2nc3cc(CN4CCC4)cc(C)c3o2)c1C [Example 94, ((2-(3′-(5-(azetidin-1-ylmethyl)-7-methylbenzo[d]oxazol-2-yl)-2,2′-dimethyl-[1,1′-biphenyl]-3-yl)-6-(difluoromethoxy)benzo[d]oxazol-5-yl)methyl)-L-proline] | 1.9 nM
8 | CCNCc1cc2nc(-c3cccc(-c4cccc(-c5nc6cc(CN7CCC[C@H]7C(=O)O)c(OC(F)F)cc6o5)c4C)c3C)oc2cc1F [Example 96, ((6-(difluoromethoxy)-2-(3′-(5-((ethylamino)methyl)-6-fluorobenzo[d]oxazol-2-yl)-2,2′-dimethyl-[1,1′-biphenyl]-3-yl)benzo[d]oxazol-5-yl)methyl)-L-proline] | 0.6 nM
9 | Cc1c(-c2nc3cc(CN[C@@H]4CCC[C@@H]4O)ccc3o2)cccc1-c1cccc(-c2nc3cc(CN4CCC[C@H]4C(=O)O)c(OC(F)F)cc3o2)c1C [Example 99, ((6-(difluoromethoxy)-2-(3′-(5-((((1R,2S)-2-hydroxycyclopentyl)amino)methyl)benzo[d]oxazol-2-yl)-2,2′-dimethyl-[1,1′-biphenyl]-3-yl)benzo[d]oxazol-5-yl)methyl)-L-proline] | 0.82 nM
10 | Cc1c(-c2nc3cc(CN4CCC4(C)O)ccc3o2)cccc1-c1cccc(-c2nc3cc(CN4CCC[C@H]4C(=O)O)c(OC(F)F)cc3o2)c1C (stereo partly drawn) [Example 104, ((6-(difluoromethoxy)-2-(3′-(5-((2-hydroxy-2-methylazetidin-1-yl)methyl)benzo[d]oxazol-2-yl)-2,2′-dimethyl-[1,1′-biphenyl]-3-yl)benzo[d]oxazol-5-yl)methyl)-L-proline] | 0.19 nM

same assay, conditions: range symbols

Row | Structure (SMILES) | IC50
11 | Cc1c(-c2nc3cc(CN4CC(C)(CO)C4)c(OC(F)F)cc3o2)cccc1-c1cccc(-c2nc3cc(CN4CCC[C@H]4C(=O)O)c(OC(F)F)cc3o2)c1C [Example 78, ((6-(difluoromethoxy)-2-(3′-(6-(difluoromethoxy)-5-((3-(hydroxymethyl)-3-methylazetidin-1-yl)methyl)benzo[d]oxazol-2-yl)-2,2′-dimethyl-[1,1′-biphenyl]-3-yl)benzo[d]oxazol-5-yl)methyl)-L-proline] | 0.1 to 5 nM
12 | Cc1c(-c2nc3cc(CN4CC(C)(C#N)C4)c(OC(F)F)cc3o2)cccc1-c1cccc(-c2nc3cc(CN4CCC[C@H]4C(=O)O)c(OC(F)F)cc3o2)c1C [Example 79, ((2-(3′-(5-((3-cyano-3-methylazetidin-1-yl)methyl)-6-(difluoromethoxy)benzo[d]oxazol-2-yl)-2,2′-dimethyl-[1,1′-biphenyl]-3-yl)-6-(difluoromethoxy)benzo[d]oxazol-5-yl)methyl)-L-proline] | 0.1 to 5 nM
13 | Cc1c(-c2nc3cc(CN4CC(=CC#N)C4)c(OC(F)F)cc3o2)cccc1-c1cccc(-c2nc3cc(CN4CCC[C@H]4C(=O)O)c(OC(F)F)cc3o2)c1C [Example 82, ((2-(3′-(5-((3-(cyanomethylene)azetidin-1-yl)methyl)-6-(difluoromethoxy)benzo[d]oxazol-2-yl)-2,2′-dimethyl-[1,1′-biphenyl]-3-yl)-6-(difluoromethoxy)benzo[d]oxazol-5-yl)methyl)-L-proline] | 0.1 to 5 nM
14 | CC1(C)CN(Cc2cc3nc(-c4cccc(-c5cccc(-c6nc7cc(CN8CCC[C@H]8C(=O)O)c(OC(F)F)cc7o6)c5C#N)c4C#N)oc3cc2OC(F)F)C1 [Example 83, ((2-(2,2′-dicyano-3′-(6-(difluoromethoxy)-5-((3,3-dimethylazetidin-1-yl)methyl)benzo[d]oxazol-2-yl)-[1,1′-biphenyl]-3-yl)-6-(difluoromethoxy)benzo[d]oxazol-5-yl)methyl)-L-proline] | 5 to 50 nM
15 | Cc1c(-c2nc3cc(CN4CCC[C@H]4C(=O)O)c(OC(F)F)cc3o2)cccc1-c1cccc(-c2nc3cc(CN4CC(C)C(C)C4)cc(C(F)(F)F)c3o2)c1C (stereo partly drawn) [Example 84, ((6-(difluoromethoxy)-2-(3′-(5-((3,4-dimethylpyrrolidin-1-yl)methyl)-7-(trifluoromethyl)benzo[d]oxazol-2-yl)-2,2′-dimethyl-[1,1′-biphenyl]-3-yl)benzo[d]oxazol-5-yl)methyl)-L-proline] | 0.1 to 5 nM
16 | Cc1c(-c2nc3cc(CN4CCC[C@@H]4C(=O)O)c(OC(F)F)cc3o2)cccc1-c1cccc(-c2nc3cc(CN4CC(C)(C)C4)c(OC(F)F)cc3o2)c1C#N [Example 87, ((2-(2′-cyano-3′-(6-(difluoromethoxy)-5-((3,3-dimethylazetidin-1-yl)methyl)benzo[d]oxazol-2-yl)-2-methyl-[1,1′-biphenyl]-3-yl)-6-(difluoromethoxy)benzo[d]oxazol-5-yl)methyl)-D-proline] | 0.1 to 5 nM
17 | Cc1c(-c2nc3cc(CN4CC[C@@H](C(=O)O)C4)c(OC(F)F)cc3o2)cccc1-c1cccc(-c2nc3cc(CN4CCC(C)C4)cc(C(F)(F)F)c3o2)c1C (stereo partly drawn) [Example 91, (3R)-1-((6-(difluoromethoxy)-2-(2,2′-dimethyl-3′-(5-((3-methylpyrrolidin-1-yl)methyl)-7-(trifluoromethyl)benzo [d]oxazol-2-yl)-[1,1′-biphenyl]-3-yl)benzo[d]oxazol-5-yl)methyl)pyrrolidine-3-carboxylic acid] | 0.1 to 5 nM
18 | Cc1c(-c2nc3cc(CN4CC[C@H](C(=O)O)C4)c(OC(F)F)cc3o2)cccc1-c1cccc(-c2nc3cc(CN4CCC(C)C4)cc(C(F)(F)F)c3o2)c1C (stereo partly drawn) [Example 92, (3S)-1-((6-(difluoromethoxy)-2-(2,2′-dimethyl-3′-(5-((3-methylpyrrolidin-1-yl)methyl)-7-(trifluoromethyl)benzo [d]oxazol-2-yl)-[1,1′-biphenyl]-3-yl)benzo[d]oxazol-5-yl)methyl)pyrrolidine-3-carboxylic acid] | 0.1 to 5 nM
19 | CCNCc1cc2nc(-c3cccc(-c4cccc(-c5nc6cc(CN7CCC[C@H]7C(=O)O)c(OC(F)F)cc6o5)c4C)c3C)oc2cc1Cl [Example 97, ((2-(3′-(6-chloro-5-((ethylamino)methyl)benzo[d]oxazol-2-yl)-2,2′-dimethyl-[1,1′-biphenyl]-3-yl)-6-(difluoromethoxy)benzo[d]oxazol-5-yl)methyl)-L-proline] | 0.1 to 5 nM
20 | Cc1c(-c2nc3cc(CN4CCC4CO)ccc3o2)cccc1-c1cccc(-c2nc3cc(CN4CCC[C@H]4C(=O)O)c(OC(F)F)cc3o2)c1C (stereo partly drawn) [Example 105, ((6-(difluoromethoxy)-2-(3′-(5-((2-(hydroxymethyl)azetidin-1-yl)methyl)benzo[d]oxazol-2-yl)-2,2′-dimethyl-[1,1′-biphenyl]-3-yl)benzo[d]oxazol-5-yl)methyl)-L-proline] | 0.1 to 5 nM
21 | Cc1c(-c2nc3cc(CN4CCC45COC5)ccc3o2)cccc1-c1cccc(-c2nc3cc(CN4CCC[C@H]4C(=O)O)c(OC(F)F)cc3o2)c1C [Example 106, ((2-(3′-(5-((6-oxa-1-azaspiro[3.3]heptan-1-yl)methyl)benzo[d]oxazol-2-yl)-2,2′-dimethyl-[1,1′-biphenyl]-3-yl)-6-(difluoromethoxy)benzo[d]oxazol-5-yl)methyl)-L-proline] | 0.1 to 5 nM

From patent US12187713B2, “Immunomodulators, compositions and methods thereof” (Betta Pharmaceuticals Co., Ltd, priority 2019, dated 2025)
